One data set relates to fungi. Kind of data set: antifungal activity of isolated tripeptides. Type of data set: cell-based. To be noted: isolated by HPLC from rhizocticine B isolates.
For another data set, the system named is pronase. Kind of data set: pronase from Streptomyces griseus. The settings on record: up to 12 hours.
For another data set, the system named is thermolysin. The data set is described as follows: thermolysin (2 mg/ml) in 0.05N N-ethylmorpholinium acetate, 0.01 M CaCl2 ×6H2 O (pH 7.8). To be noted: 41° C., up to 30 hours.
The subject of a further data set is hyphal fungi. The settings on record: cited from earlier work.
The subject of another data set is Candida albicans. To be noted: cited from earlier work.
The test system of a further data set is Saccharomyces cerevisiae. The settings on record: cited from earlier work.
Data set [1] concerns pronase from Streptomyces griseus. Kind of data set: pronase treatment. The method, then:
The enzymatic hydrolysis of rhizocticine B (L-Val-L-Arg-L-APPA) to rhizocticine A with removal of valine is effected with pronase from Streptomyces griseus, a peptidase of low specificity. The enzymatic degradation of L-Val-L-Arg-L-APPA is effected quantitatively within a few minutes (approximately 15 minutes), the antifungal activity being obtained. By removing the N-terminal amino acid valine, rhizocticine A is formed. The hydrolysis is confirmed by thin-layer chromatography and ion-exchanger/amino acid analysis.

A further data set in a line: solubility. Format: physicochemical.

Consider eight compounds from US5095139A (Ciba-Geigy Corporation, priority 1986, dated 1992).

For the compound `CC[C@H](C)[C@H](N)C(=O)N[C@@H](CCCNC(=N)N)C(=O)N[C@@H](/C=C\CP(=O)(O)O)C(=O)O` [rhizocticine C, L-Ile-L-Arg-L-APPA], the antifungal activity entry in the data set on fungi is “antifungal”.

For the compound `CC(C)C[C@H](N)C(=O)N[C@@H](CCCNC(=N)N)C(=O)N[C@@H](/C=C\CP(=O)(O)O)C(=O)O` [rhizocticine D, L-Leu-L-Arg-L-APPA], the antifungal activity result in the data set with fungi is given as “antifungal”.

On to L-Arg-L-APPA, for which the not cleaved result with pronase was “remains inert during the pronase treatment”. Besides, the cleaved bond result with thermolysin is “L-Arg-L-APPA”.

In the case of `C[C@H](N)C(=O)N[C@@H](C[C@@H]1CCC(=O)[C@@H]2O[C@H]12)C(=O)O` [Bacilysin, N-alanyl-3-(2,3-epoxycyclohexanon-4-yl)-alanine], in the data set with hyphal fungi, the action entry is “virtually no action”. For the same compound, the inhibition entry with Candida albicans and with Saccharomyces cerevisiae was “inhibits” in each case.

As for `CC(C)[C@H](N)C(=O)N[C@@H](CCCNC(=N)N)C(=O)N[C@@H](/C=C\CP(=O)(O)O)C(=O)O` [rhizocticine B, L-Val-L-Arg-L-APPA], the “time for quantitative enzymatic degradation (removal of N-terminal valine)” value in data set [1] (pronase) is listed as “approximately 15 minutes”. Further, the Solubility result is reported as “readily soluble” in “solubility” (35% ethanol); “insoluble” in the data set “solubility” (apolar solvents); “moderately soluble” in the data set “solubility” (ethanol and higher alcohols); “readily soluble” in “solubility” (water).

With L-Val-L-Arg-L-APPA, the cleaved bond result in the data set with pronase is listed as “L-Val-L-Arg, approximately 15 minutes”.

Consider `N[C@@H](/C=C\CP(=O)(O)O)C(=O)O` (stereo in doubt) [L-APPA, L-2-amino-5-phosphono-3-cis-pentenoic acid], for which the Solubility entry in the data set “solubility” (35% ethanol) is “readily soluble”; in “solubility” (apolar solvents) it was “insoluble”; in “solubility” (ethanol and higher alcohols), “moderately soluble”; in the data set “solubility” (water), “readily soluble”.

With `N=C(N)NCCC[C@H](N)C(=O)N[C@@H](/C=C\CP(=O)(O)O)C(=O)O` [rhizocticine A, L-Arg-L-APPA], the “loss of activity of the dipeptide formed” value in data set [1] (after 12 hours of pronase treatment) was “no loss of activity”. In addition, the “behaviour during the pronase treatment” value in data set [1] (native compound) is reported as “remains inert”. Besides, the Solubility entry is listed as “readily soluble” in “solubility” (35% ethanol); “insoluble” in “solubility” (apolar solvents); “moderately soluble” in the data set “solubility” (ethanol and higher alcohols); “readily soluble” in “solubility” (water).
